Assay [1] concerns MDA-MB-231 human breast adenocarcinoma cell line. Kind of assay: MTT cell viability assay, MDA-MB-231. It counts as cell-based. Particulars: 0.01 to 100 μM, read-out: IC50 (μM) ± S.D MDA-MB-231. As to the method: (§1) The MDA-MB-231 human breast adenocarcinoma cell line (ATCC HTB-26), A549 human lung carcinoma cell line (ATCC CCL-185), TOV-21G human ovarian adenocarcinoma cell line (ATCC CRL-11730), and WI-26VA4 human lung fibroblast cell line (ATCC CCL-95.1) were cultured in RPMI-1640 medium supplemented with 10% fetal bovine serum (FBS) and gentamicin (100 μg/mL). Cells were maintained at 37 °C in a humidified atmosphere containing 5% CO2.
(§2) Cell viability was assessed using the MTT assay (3-[4,5-dimethylthiazol-2-yl]-2,5-diphenyl-tetrazolium bromide). Briefly, 100 μL of complete medium containing 1 × 10^4 cells was added to each well of a 96-well tissue culture plate. Cells were incubated at 37 °C in a humidified atmosphere with 5% CO2 for 24 h prior to treatment. Following medium removal, 100 μL of fresh medium containing the test compounds at concentrations ranging from 0.01 to 100 μM was added to each well, and cells were incubated for 48 h under the same conditions. All compounds were presolubilized in dimethyl sulfoxide (DMSO), and the final DMSO concentration in all treatments was maintained at ≤ 0.2% to avoid interference with cell viability.
(§3) After treatment, the medium was replaced with 100 μL of MTT solution (0.5 mg/mL) per well, followed by a 3 h incubation. Formazan crystals were dissolved by adding 100 μL of DMSO to each well, and absorbance was measured at 550 nm using a microplate reader (SpectraMax M5e, Molecular Devices, Sunnyvale, CA, USA). The percentage of growth inhibition was calculated as [1-(Abs of treated/Abs of control)]×100. All experiments were conducted in triplicate, and results are expressed as mean IC50 values, which were determined using OriginPro 8.0 software (OriginLab Corporation, Northampton, MA, USA).
For orientation: Tetrazolium dyes change colour on reduction, which living cells bring about.

In assay [2] the test system is A549 human lung carcinoma cell line. Kind of assay: MTT cell viability assay, A549. It counts as cell-based. To be noted: 0.01 to 100 μM, read-out: IC50 (μM) ± S.D A549. As to the method: as §1, §2, §3
The test system of assay [3] is TOV-21G human ovarian adenocarcinoma cell line. Kind of assay: MTT cell viability assay, TOV-21G. It counts as cell-based. Particulars: 48 h, 0.01 to 100 μM, read-out: IC50 (μM) ± S.D TOV-21G. How it is done: as §1, §2, §3
In assay [4] the test system is WI-26VA4 human lung fibroblast cell line. Kind of assay: MTT cell viability assay, WI-26VA4. Type of assay: cell-based. To be noted: 0.01 to 100 μM, read-out: IC50 (μM) ± S.D WI-26VA4. As to the method: as §1, §2, §3
The nature of assay [5]: Mass loss (gravimetric) corrosion inhibition test. Particulars: 2 mmol L–1 inhibitor, 5% (v/v) DMSO in HCl 1 mol L–1, 4 h immersion, relative to solution without inhibitor. As to the method:
SAE 1020 steel plates, with a composition of C (0.18–0.23%), Mn (0.3–0.6%), P (0.03%), and S (0.05%), and dimensions of 2.5 × 2.5 × 0.13 cm, were polished sequentially using emery papers of increasing grit sizes (150, 220, 320, 400 and 600). After polishing, the plates were thoroughly rinsed with deionized (Milli-Q) water.
A control solution was prepared by dissolving 5% (v/v) dimethyl sulfoxide in HCl 1 mol L^–1. Inhibitor-containing solutions were prepared by adding 2 mmol L^–1 of the inhibitor to 5% (v/v) dimethyl sulfoxide in HCl 1 mol L^–1 using deionized (Milli-Q) water. SAE 1020 steel plates were immersed in these solutions for a duration of 4 h.
The gravimetric method was employed to evaluate corrosion resistance by weighing the steel plates before and after immersion in the aqueous HCl solution. The mass loss (w) was calculated as the difference between the average initial mass (m i) and final mass (m f) of each plate (eq ). This information was subsequently used to determine the inhibition efficiency (IE) according to eq , where w 0 and w represent the mass losses in the absence and presence of the inhibitor, respectively. All measurements were performed in triplicate to ensure accuracy and reliability, and the reported values correspond to the average of these three determinations. , 5 w=[…] 6 IE(%)=(w^0−w)/w^0.100

Read-outs that look alike come from different tables or passages of the source. Some results are limits rather than exact numbers.

Consider six molecules from publication PMC12612871, “Novel 1,3-Diazepines as Nontoxic Corrosion Inhibitors” (ACS Omega, 2025).

Usually IC50 stands for the point on the concentration scale where inhibition reaches its midpoint. Regarding `COC(=O)C(C#N)=C1NCCCCN1` [compound 12, Methyl 2-cyano-2-(1,3-diazepan-2-ylidene)-acetate], the IC50 in assay [1] (Homo sapiens, MDA-MB-231, 48 h) is over 100 µM; in assay [2] (Homo sapiens, A549, 48 h) it was over 100 µM; in assay [3] (Homo sapiens, TOV21G), over 100 µM; in assay [4] (Homo sapiens, WI26VA4, 48 h), over 100 µM. Also, the “IE (%) corrosion inhibition efficiency by mass loss” value in assay [5] turned out to be 92 ± 0.6%.
On to “2-(nitromethylene)-1,3-diazepine [compound 10]”, for which the IC50 in assay [1] (48 h), in assay [2] (48 h), in assay [3] and in assay [4] (48 h) was over 100 µM each time. In addition, the “IE (%) corrosion inhibition efficiency by mass loss” value in assay [5] stood at 91 ± 0.7%.
For `COc1cccc2c1C(=O)c1c(O)c3c(c(O)c1C2=O)C[C@@](O)(C(=O)CO)C[C@@H]3O[C@H]1C[C@H](N)[C@H](O)[C@H](C)O1` [doxorubicin, reference compound], the concentration for half-maximal inhibition (IC50) in assay [1] (Homo sapiens, MDA-MB-231, 48 h) amounted to 2.6 ± 0.8 µM; in assay [2] (Homo sapiens, A549, 48 h), 0.67 ± 0.4 µM; in assay [3] (Homo sapiens, TOV21G), 8.3 ± 4 µM; in assay [4] (Homo sapiens, WI26VA4, 48 h), 7 ± 2 µM.
For `N#CC(C(=O)c1ccccc1)=C1NCCCCN1` [compound 14, 2-(1,3-Diazepan-2-ylidene)-3-oxo-3-phenylpropanenitrile], the IC50 in assay [1] (Homo sapiens, MDA-MB-231, 48 h) was over 100 µM; in assay [3] (Homo sapiens, TOV21G), over 100 µM; in assay [4] (Homo sapiens, WI26VA4, 48 h), over 100 µM. Further, the “IE (%) corrosion inhibition efficiency by mass loss” value in assay [5] is on record as 94 ± 2.5%.
With `N#CC(C#N)=C1NCCCCN1` [compound 11, 2-(1,3-Diazepan-2-ylidene)-malononitrile], the IC50 in assay [1] (Homo sapiens, MDA-MB-231, 48 h) is over 100 µM; in assay [2] (Homo sapiens, A549, 48 h) it was over 100 µM; in assay [3] (Homo sapiens, TOV21G), over 100 µM; in assay [4] (Homo sapiens, WI26VA4, 48 h), over 100 µM. Besides, the “IE (%) corrosion inhibition efficiency by mass loss” value in assay [5] came out at 88 ± 0.9%.
For the molecule `CCOC(=O)C(C(=O)OCC)=C1NCCCCN1` [compound 13, Diethyl 2-(1,3-diazepan-2-ylidene)-malonate], the half-maximal inhibitory concentration (IC50) is over 100 µM in assay [1] (Homo sapiens, MDA-MB-231, 48 h); over 100 µM in assay [2] (Homo sapiens, A549, 48 h); over 100 µM in assay [3] (Homo sapiens, TOV21G); over 100 µM in assay [4] (Homo sapiens, WI26VA4, 48 h). Further, the “IE (%) corrosion inhibition efficiency by mass loss” value in assay [5] amounted to 19 ± 5.4%.
